Experimental data taken from patent publication US20100216751A1 (priority 2007, published 2010).

Experiment: Pharmacokinetic evaluation of liquid bevirimat dosage forms, oral gavage, male Cynomolgus monkeys
Details: male, cynomolgus monkey, in vivo, po; for concentration at 72 hr: BLOQ=below 50 ng/mL; for AUC: AUCall
Description: Six male Cynomolgus monkeys having an initial body weight of about 3.5 to about 4.5 kg are allowed 7 days to acclimate to their individual housing units. Monkeys are supplied with water and a commercial diet ad libitum prior to the study initiation. Food is withheld from the monkeys for a minimum of twelve hours before the study and during the study until four hours postdose when food is returned. Water is supplied ad libitum.
Test formulations are administered to the monkeys at time 0 on appropriate days. Test formulations will be dosed orally via oral gavage or intravenously.
Samples are drawn at the frequencies indicated below. Each blood sample (0.5 mL) is collected from the monkey's saphenous vein via a butterfly catheter and placed into a chilled polypropylene tube containing sodium heparin as the anticoagulant. Blood samples are centrifuged at a temperature of 4° C. at a speed of 3,000 rpm for 15 minutes. All samples are maintained chilled throughout processing. Plasma is collected after centrifugation, pipetted into a 2-mL polypropylene microtube, and frozen on dry-ice pending analytical evaluation.

[1] = 50 mg FAE/monkey, Plasma concentration, 12.5 mg FAE/mL in 10% HPβCD, 50 mg FAE/monkey oral gavage, monkeys 186,116,120,AVG
[2] = 50 mg FAE/monkey, Plasma concentration, 12.5 mg FAE/mL in 15% EtOH:0.5% TPGS:15% PG:5% Glycerin, 0.2% Povidone K90, 50 mg FAE/monkey oral gavage, monkeys 117,118,119,AVG
[3] = 50 mg FAE/monkey, Plasma concentration, 25 mg/mL in 30% EtOH:1% TPGS:30% PG:10% Glycerin, 50 mg FAE/monkey oral gavage, monkeys 117,118,119,AVG
[4] = 50 mg FAE/monkey, Plasma concentration, 50 mg FAE/mL in 40% EtOH:40% PG:20% Glycerol, 50 mg FAE/monkey oral gavage, monkeys 117,118,119,AVG
[5] = 50 mg, 12.5 mg FAE/mL in 10% HPβCD, 50 mg FAE/monkey oral gavage, monkeys 186,116,120,AVG
[6] = 50 mg, 12.5 mg FAE/mL in 15% EtOH:0.5% TPGS:15% PG:5% Glycerin, 0.2% Povidone K90, 50 mg FAE/monkey oral gavage, monkeys 117,118,119,AVG
[7] = 50 mg, 12.5 mg FAE/mL in 40% PG, 20% Glycerin, 0.25% Tween80, 0.2% Povidone K15, 50 mg FAE oral gavage, monkeys 186,116,120,AVG

Compound C=C(C)[C@@H]1CC[C@]2(C(=O)O)CC[C@]3(C)[C@H](CC[C@@H]4[C@@]5(C)CC[C@H](OC(=O)CC(C)(C)C(=O)O)C(C)(C)[C@@H]5CC[C@]43C)[C@@H]12 [Bevirimat, 3-O-(3′,3′-dimethylsuccinyl)betulinic acid] has a concentration at 2 hr [1] of 59200 ng/mL, a concentration at 2 hr [2] of 51300 ng/mL and a concentration at 2 hr [3] of 56700 ng/mL. The concentration at 2 hr [4] was 25800 ng/mL, the concentration at 2 hr (50 mg FAE/monkey, Plasma concentration, 50 mg FAE/mL in 40% PG:20% Glycerin:1% TPGS:5% Tween 80 in SWFI, 50 mg FAE/monkey oral gavage, monkeys 117,118,119,AVG) was 17900 ng/mL and the concentration at 4 hr [1] was 35000 ng/mL. For the same compound, the concentration at 4 hr [2] was 33100 ng/mL, the concentration at 6 hr [1] was 20700 ng/mL and the concentration at 6 hr [2] was 23100 ng/mL. It also gave a concentration at 8 hr (50 mg FAE/monkey, Plasma concentration, 8.0 hr, 12.5 mg FAE/mL in 10% HPβCD, 50 mg FAE/monkey oral gavage, monkeys 186,116,120,AVG) of 13000 ng/mL, a concentration at 24 hr (50 mg FAE/monkey, Plasma concentration, 24 hr, 12.5 mg FAE/mL in 10% HPβCD, 50 mg FAE/monkey oral gavage, monkeys 186,116,120,AVG) of 1560 ng/mL and a concentration at 72 hr [1] of 120 ng/mL. The concentration at 72 hr (50 mg FAE/monkey, Plasma concentration, 12.5 mg FAE/mL in 15% EtOH:0.5% TPGS:15% PG:5% Glycerin, 50 mg FAE/monkey oral gavage, monkeys 117,118,119,AVG) was 233 ng/mL, the concentration at 72 hr [3] was 69.3 ng/mL and the concentration at 72 hr [4] was 76 ng/mL. For the same compound, the AUC [5] was 348 µg·h/mL, the AUC [6] was 488 µg·h/mL and the AUC [7] was 212 µg·h/mL. For the same compound, the Cmax [5] was 59200 ng/mL, the Cmax [6] was 51300 ng/mL and the Cmax (50 mg, 12.5 mg FAE/mL in 15% Ethanol, 30% PG, 10% Glycerin, 50 mg FAE oral gavage, monkeys 117,118,119,AVG) was 64100 ng/mL. The Cmax [7] was 42800 ng/mL, the Cmax (50 mg, 12.5 mg FAE/mL in 40% PG, 20% Glycerin, 1% TPGS, 0.25% Tween80, 0.2% Povidone K15, 50 mg FAE/monkey oral gavage, monkeys 117,118,119,AVG) was 93300 ng/mL and the Cmax (50 mg, 50 mg FAE/mL in 40% EtOH:40% PG:20% Glycerol, 50 mg FAE/monkey oral gavage, monkeys 117,118,119,AVG) was 25800 ng/mL. The Cmax (50 mg, 50 mg/monkey, PG/glycerin/Vitamin ETPGS/Tween80/Plasdone C15 formulation, AVG) was 62400 ng/mL, the Cmax (50 mg, 50 mg/monkey, PG/glycerin/Vitamin ETPGS/Tween80/Plasdone C15 formulation, individual monkey) was 55100 ng/mL and the Cmax (50 mg, 50 mg/monkey, PG/glycerin/Vitamin ETPGS/ethanol formulation, AVG) was 60100 ng/mL. For the same compound, the Cmax (50 mg, 50 mg/monkey, PG/glycerin/Vitamin ETPGS/ethanol formulation, individual monkey) was 58900 ng/mL, the half-life (50 mg, t1/2, 12.5 mg FAE/mL in 10% HPβCD, 50 mg FAE/monkey oral gavage, monkeys 186,116,120,AVG) was 9.9 h and the half-life (50 mg, t1/2, 12.5 mg FAE/mL in 15% EtOH:0.5% TPGS:15% PG:5% Glycerin, 50 mg FAE/monkey oral gavage, monkeys 117,118,119,AVG) was 12 h. For the same compound, the half-life (50 mg, t1/2, 12.5 mg FAE/mL in 15% EtOH:0.5% TPGS:15% PG:5% Glycerin, 0.2% Povidone K90, 50 mg FAE/monkey oral gavage, monkeys 117,118,119,AVG) was 12.2 h, the half-life (50 mg, t1/2, 12.5 mg FAE/mL in 15% Ethanol, 30% PG, 10% Glycerin, 50 mg FAE oral gavage, monkeys 117,118,119,AVG) was 8.9 h and the half-life (50 mg, t1/2, 12.5 mg FAE/mL in 40% PG, 20% Glycerin, 0.25% Tween80, 0.2% Povidone K15, 50 mg FAE oral gavage, monkeys 186,116,120,AVG) was 8 h. It also gave a half-life (50 mg, t1/2, 12.5 mg FAE/mL in 40% PG, 20% Glycerin, 1% TPGS, 0.25% Tween80, 50 mg FAE/monkey oral gavage, monkeys 186,116,120,AVG) of 9.9 h, a half-life (50 mg, t1/2, 12.5 mg FAE/mL in 40% PG, 20% Glycerin, 1% TPGS, 0.25% Tween80, 0.2% Povidone K15, 50 mg FAE/monkey oral gavage, monkeys 117,118,119,AVG) of 10.4 h and a half-life (50 mg, t1/2, 25 mg/mL in 30% EtOH:1% TPGS:30% PG:10% Glycerin, 50 mg FAE/monkey oral gavage, monkeys 117,118,119,AVG) of 10.6 h. The half-life (50 mg, t1/2, 50 mg FAE/mL in 40% EtOH:40% PG:20% Glycerol, 50 mg FAE/monkey oral gavage, monkeys 117,118,119,AVG) was 9.8 h, the half-life (50 mg, t1/2, 50 mg FAE/mL in 40% PG:20% Glycerin:1% TPGS:5% Tween 80 in SWFI, 50 mg FAE/monkey oral gavage, monkeys 117,118,119,AVG) was 11.8 h and the half-life (50 mg, t1/2, 10% HPβCD, 50 mg FAE/monkey oral gavage, monkeys 117,118,119,AVG) was 10 h. The half-life (50 mg, t1/2, oral, 50 mg/monkey, PG/glycerin/Vitamin ETPGS/Tween80/Plasdone C15 formulation, AVG) was 6.4 h, the half-life (50 mg, t1/2, oral, 50 mg/monkey, PG/glycerin/Vitamin ETPGS/Tween80/Plasdone C15 formulation, individual monkey) was 8.6 h and the half-life (50 mg, t1/2, oral, 50 mg/monkey, PG/glycerin/Vitamin ETPGS/ethanol formulation, AVG) was 6.9 h. The half-life (50 mg, t1/2, oral, 50 mg/monkey, PG/glycerin/Vitamin ETPGS/ethanol formulation, individual monkey) was 6.2 h, the Tmax (50 mg, tmax, 12.5 mg FAE/mL in 40% PG, 20% Glycerin, 1% TPGS, 0.25% Tween80, 0.2% NaCMC, 50 mg FAE/monkey oral gavage, monkeys 117,118,119,AVG) was 1 h and the concentration at 0.25 h (50 mg/monkey, Plasma Concentration, PG/glycerin/Vitamin ETPGS/Tween80/Plasdone C15 formulation, AVG) was 64.6 ng/mL. The concentration at 0.25 h (50 mg/monkey, Plasma Concentration, PG/glycerin/Vitamin ETPGS/Tween80/Plasdone C15 formulation, individual monkey) was 69.8 ng/mL and the concentration at 0.5 h (50 mg/monkey, Plasma Concentration, PG/glycerin/Vitamin ETPGS/Tween80/Plasdone C15 formulation, 0.50 hr, AVG) was 3550 ng/mL.
